Results taken from ChEMBL document CHEMBL1201862, “PubChem BioAssay data set” (2004).
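Tested at 5 concentrations; 48 h exposure; 96-well plates; endpoints linearly interpolated, else capped at highest concentration. GI50 marks 50% less growth.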 Activity calls are given as the source filed them. No stated cut-off is given here; in the data, active = GI50 up to about 1.1 µM and inactive = higher.

Tests used:
Assay in all cases: NCI tumour cell line growth inhibition, 48 h
786-0 = tested on: 786-0
BT-549 = tested on: BT-549
CCRF-CEM = tested on: CCRF-CEM
COLO 205 = tested on: COLO 205
HL-60 = tested on: HL-60
HT-29 = tested on: HT-29
Hs-578T = tested on: Hs-578T
IGROV-1 = tested on: IGROV-1
K562 = tested on: K562
MDA-MB-435 = tested on: MDA-MB-435
MOLT-4 = tested on: MOLT-4
NCI-H226 = tested on: NCI-H226
NCI-H460 = tested on: NCI-H460
SF-268 = tested on: SF-268
SK-MEL-5 = tested on: SK-MEL-5
SN12C = tested on: SN12C
SNB-19 = tested on: SNB-19
SR = tested on: SR
T47D = tested on: T47D
UO-31 = tested on: UO-31

Structure (SMILES)	GI50 (786-0)	GI50 (BT-549)	GI50 (CCRF-CEM)	GI50 (COLO 205)	GI50 (HL-60)	GI50 (HT-29)	GI50 (Hs-578T)	GI50 (IGROV-1)	GI50 (K562)	GI50 (MDA-MB-435)	GI50 (MOLT-4)	GI50 (NCI-H226)	GI50 (NCI-H460)	GI50 (SF-268)	GI50 (SK-MEL-5)	GI50 (SN12C)	GI50 (SNB-19)	GI50 (SR)	GI50 (T47D)	GI50 (UO-31)
CN(C)CC1CCCc2ccccc2C1=O (stereo not given)	1.47 µM (inactive)	5.06 µM (inactive)	0.107 µM (active)	5.14 µM (inactive)	2.66 µM (inactive)	1.82 µM (inactive)	3.93 µM (inactive)	2.06 µM (inactive)	0.323 µM (active)	0.897 µM (active)	0.269 µM (active)	21.8 µM (inactive)	19.6 µM (inactive)	2.21 µM (inactive)	4.4 µM (inactive)	7.4 µM (inactive)	13 µM (inactive)	0.271 µM (active)	7.73 µM (inactive)	1.9 µM (inactive)
C#C[C@]1(O)CC[C@H]2[C@@H]3CCC4=C/C(=N\OCCN5CCCC5)CC[C@]4(C)[C@H]3CC[C@@]21C	7.11 µM (inactive)	16.3 µM (inactive)	14.6 µM (inactive)	13.7 µM (inactive)	5.35 µM (inactive)	12.7 µM (inactive)	6.25 µM (inactive)	4.79 µM (inactive)	5.12 µM (inactive)	3 µM (inactive)	6.14 µM (inactive)	20.6 µM (inactive)	17.7 µM (inactive)	13.5 µM (inactive)	3.67 µM (inactive)	16.7 µM (inactive)	15.3 µM (inactive)	2.96 µM (inactive)	16.1 µM (inactive)	15.7 µM (inactive)
O=C(c1ccccc1)c1ccc(-n2c3ccccc3c3ccc4c(c32)C(=O)C=CC4=O)cc1	2.06 µM (inactive)	20.3 µM (inactive)	1.11 µM (active)	9.12 µM (inactive)	2.8 µM (inactive)	2.82 µM (inactive)	23.4 µM (inactive)	16 µM (inactive)	3.4 µM (inactive)	6.01 µM (inactive)	1.75 µM (inactive)	23.3 µM (inactive)	18.5 µM (inactive)	10.7 µM (inactive)	18.7 µM (inactive)	9.08 µM (inactive)	20.9 µM (inactive)	3.15 µM (inactive)	3.1 µM (inactive)	2.74 µM (inactive)
CC1(C)C=C(S(=O)(=O)c2ccccc2)Oc2ccccc2O1	44.6 µM (inactive)	42.7 µM (inactive)	40.1 µM (inactive)	18.8 µM (inactive)	20.5 µM (inactive)	39.6 µM (inactive)	64.9 µM (inactive)	44.2 µM (inactive)	29.8 µM (inactive)	20.5 µM (inactive)	25.2 µM (inactive)	46.6 µM (inactive)	35.2 µM (inactive)	61.1 µM (inactive)	15.4 µM (inactive)	64.9 µM (inactive)	62.5 µM (inactive)	41.9 µM (inactive)	19.8 µM (inactive)	20.7 µM (inactive)
COc1cc2c(c(O)c1C)C(=O)C(Cl)=CC2=O	11.6 µM (inactive)	8.3 µM (inactive)	0.918 µM (active)	2.16 µM (inactive)	0.933 µM (active)	10.8 µM (inactive)	30.5 µM (inactive)	20.4 µM (inactive)	2.26 µM (inactive)	7.46 µM (inactive)	1.88 µM (inactive)	15.1 µM (inactive)	24.9 µM (inactive)	17.8 µM (inactive)	8.69 µM (inactive)	12.4 µM (inactive)	42.3 µM (inactive)	0.662 µM (active)	2.17 µM (inactive)	10.4 µM (inactive)
CCC1(O)C=CC(=O)C=C1	18.4 µM (inactive)	43.5 µM (inactive)	60.7 µM (inactive)	42.4 µM (inactive)	35 µM (inactive)	31.8 µM (inactive)	66.5 µM (inactive)	17.2 µM (inactive)	39.5 µM (inactive)	29 µM (inactive)	47.3 µM (inactive)	25.5 µM (inactive)	23.4 µM (inactive)	20.7 µM (inactive)	31.8 µM (inactive)	32.9 µM (inactive)	18.1 µM (inactive)	36.8 µM (inactive)	22.7 µM (inactive)	18.1 µM (inactive)
Cc1ccc2nc3sc(=O)sc3nc2c1 [CHINOMETHIONAT]	15.5 µM (inactive)	15.3 µM (inactive)	31.5 µM (inactive)	13.9 µM (inactive)	16.6 µM (inactive)	17.1 µM (inactive)	25 µM (inactive)	16.1 µM (inactive)	26.2 µM (inactive)	16.1 µM (inactive)	15.2 µM (inactive)	14.3 µM (inactive)	12.9 µM (inactive)	16.4 µM (inactive)	15.6 µM (inactive)	15.5 µM (inactive)	18.2 µM (inactive)	21.1 µM (inactive)	83.6 µM (inactive)	15.4 µM (inactive)
